Consider 27 molecules from patent publication US20260265246A1 (ICAHN SCHOOL OF MEDICINE AT MOUNT SINAI, priority 2021, published 2026).

For experiment [1], the target named is T1, 5HT2A receptor (Homo sapiens, UniProt P28223). The experiment is described as follows: biochemical. On the set-up: expressed in transfected cells; crude membranes. It counts as binding.
For experiment [2], the target named is T1, 5HT2A receptor. As to the kind of experiment: cell-based. On the set-up: expressed in transfected cells; host or cells: HEK293T cells, transient co-transfection. Particulars: for Emax: HEK-293T.
Setting [3] is: 5HT2A Ki (nM), secondary radioligand binding, Ki from IC50 by Cheng-Prusoff.
Where [4] appears, read: 5HT2A Gq EC50 (nM), BRET2 Gαq dissociation, HEK293T cells.
Setting [5] is: BRET2 Gαq dissociation, HEK293T cells, normalized to 5-HT, read-out: 5HT2A Gq Emax (%).
Setting [6] is: 5HT2A Ki (nM), secondary binding assay, Cheng-Prusoff.
Setting [7] is: 5HTA Gq EC50 (nM), BRET2 Gαq dissociation, HEK293T.
The mark [8] stands for this setting: BRET2 Gαq dissociation, HEK293T, normalized to 5-HT, read-out: 5HTA Gq Emax (%).
Setting [9] is: read-out: 5HTA Gq Emax (%), BRET2 Gαq dissociation, HEK293T, normalized to 5-HT.
Setting [10] is: BRET2 Gαq dissociation, HEK293T, read-out: 5HTA Gq EC50.

Structures are written as SMILES. Read-outs that look alike come from different tables or passages of the source.

T1 sequence (P28223 whole entry): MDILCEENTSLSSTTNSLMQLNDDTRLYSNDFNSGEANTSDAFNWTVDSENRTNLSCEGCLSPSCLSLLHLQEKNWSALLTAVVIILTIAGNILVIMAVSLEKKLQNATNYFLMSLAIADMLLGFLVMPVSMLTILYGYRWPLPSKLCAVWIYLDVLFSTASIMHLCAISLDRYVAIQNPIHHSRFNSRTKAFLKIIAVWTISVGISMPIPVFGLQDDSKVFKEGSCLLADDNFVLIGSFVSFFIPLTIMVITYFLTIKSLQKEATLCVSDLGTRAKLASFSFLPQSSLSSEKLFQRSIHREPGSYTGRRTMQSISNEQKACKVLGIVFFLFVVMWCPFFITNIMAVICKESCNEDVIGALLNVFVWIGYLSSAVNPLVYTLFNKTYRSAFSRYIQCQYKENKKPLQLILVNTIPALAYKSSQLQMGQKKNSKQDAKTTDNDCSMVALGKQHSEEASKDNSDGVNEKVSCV

Take `CN1CCC=C(c2c[nH]c3c(O)cccc23)C1` [Example 60, 3-(1-methyl-1,2,5,6-tetrahydropyridin-3-yl)-1H-indol-7-ol]: affinity on 5HT2A receptor [1] (setting [3]) was put at a Ki of 795 nM. Moreover, it took 440 nM to reach a half-maximal effect on 5HT2A receptor [2] (setting [4]) (EC50). For the same molecule, at 5HT2A receptor [2] (setting [5]), the Emax was 64.3%.

`CCCN1CCC=C(c2c[nH]c3ccncc23)C1` [Example 144, 3-(1-propyl-1,2,5,6-tetrahydropyridin-3-yl)-1H-pyrrolo[3,2-c]pyridine] showed a Ki on 5HT2A receptor [1] (setting [6]) of 8250 nM. Moreover, on 5HT2A receptor [2] (setting [7]), the EC50 stood at 1180 nM. Further, at 5HT2A receptor [2] (setting [8]), the Emax came to 67.2%.

Molecule `CN1CCCC=C(c2n[nH]c3c(Cl)cccc23)C1` [Example 211, 7-chloro-3-(1-methyl-2,5,6,7-tetrahydro-1H-azepin-3-yl)-1H-indazole] yielded a Ki at 5HT2A receptor [1] (setting [6]) of 1180 nM. The molecule also displayed an EC50 on 5HT2A receptor [2] (setting [7]) of 732 nM. The Emax on 5HT2A receptor [2] (setting [8]) is 59.9%.

Turning to `CCc1ccc2[nH]cc(C3=CCCN(C)C3)c2c1` [Example 26, 5-ethyl-3-(1-methyl-1,2,5,6-tetrahydropyridin-3-yl)-1H-indole], at 5HT2A receptor [1] (setting [3]), the Ki came out at 166 nM. At 5HT2A receptor [2] (setting [4]), this molecule displayed an EC50 of 177 nM. Also, the Emax at 5HT2A receptor [2] (setting [5]) was found to be 64.2%.

As to `Clc1cccc2c(C3=CN4CCC3CC4)c[nH]c12` [Example 250, 3-(7-chloro-1H-indol-3-yl)-1-azabicyclo[2.2.2]oct-2-ene], the Ki at 5HT2A receptor [1] (setting [6]) stood at 1630 nM. The EC50 on 5HT2A receptor [2] (setting [7]) came out at 1290 nM. In addition, on 5HT2A receptor [2] (setting [8]), the Emax is 73.1%.

For `C1=C(c2c[nH]c3ccncc23)CNCC1` [Example 141, 3-(1,2,5,6-tetrahydropyridin-3-yl)-1H-pyrrolo[3,2-c]pyridine], on 5HT2A receptor [1] (setting [6]), the inhibition constant (Ki) stood at 739 nM. This molecule returned an EC50 at 5HT2A receptor [2] (setting [7]) of 631 nM. Also, at 5HT2A receptor [2] (setting [8]), the maximum response (Emax) is 91.3%.

The molecule `Cc1ccc2[nH]cc(C3=CCCN(C)C3)c2n1` [Example 140, 5-methyl-3-(1-methyl-1,2,5,6-tetrahydropyridin-3-yl)-1H-pyrrolo[3,2-b]pyridine] registered a Ki on 5HT2A receptor [1] (setting [6]) of 1130 nM. Besides, the EC50 at 5HT2A receptor [2] (setting [7]) is 247 nM. For the same molecule, the Emax at 5HT2A receptor [2] (setting [8]) amounted to 62.6%.

For the molecule `Clc1cccc2c(C3CC4CCC(C3)N4)n[nH]c12` (stereo not drawn) [Example 225, 3-(8-azabicyclo[3.2.1]octan-3-yl)-7-chloro-1H-indazole], at 5HT2A receptor [1] (setting [6]), the Ki turned out to be 2110 nM. This molecule also had an EC50 on 5HT2A receptor [2] (setting [7]) of 500 nM. Also, the Emax on 5HT2A receptor [2] (setting [8]) was found to be 105%.

At 5HT2A receptor [1] (setting [3]), `CCc1[nH]c2ccccc2c1C1=CCCN(C)C1` [Example 65, 2-ethyl-3-(1-methyl-1,2,5,6-tetrahydropyridin-3-yl)-1H-indole] had a Ki of 221 nM. This molecule also displayed an EC50 on 5HT2A receptor [2] (setting [4]) of 124 nM. On 5HT2A receptor [2] (setting [5]), the Emax was 51.2%.

For `Fc1cc(Cl)c2[nH]nc(C34CNCCC3C4)c2c1` (stereo not drawn) [Example 196, 3-(3-azabicyclo[4.1.0]heptan-1-yl)-7-chloro-5-fluoro-1H-indazole], at 5HT2A receptor [1] (setting [6]), the Ki was 910 nM. The molecule further came in with an EC50 at 5HT2A receptor [2] (setting [7]) of 220 nM. Further, the Emax at 5HT2A receptor [2] (setting [8]) came out at 67%.

On to `Cc1cccc2c(C3CNC3)c[nH]c12` [Example 258, 3-(azetidin-3-yl)-7-methyl-1H-indole], for which the Ki on 5HT2A receptor [1] (setting [6]) came to 674 nM. On 5HT2A receptor [2] (setting [7]), the EC50 was 444 nM. Further, at 5HT2A receptor [2] (setting [9]), the Emax is 82.1%.

At 5HT2A receptor [1] (setting [6]), `Clc1cccc2c(C3=CCNCC3)n[nH]c12` [Example 241, 7-chloro-3-(1,2,3,6-tetrahydropyridin-4-yl)-1H-indazole] returned a Ki of 376 nM. For the same molecule, the EC50 at 5HT2A receptor [2] (setting [10]) came to 65 nM. The Emax on 5HT2A receptor [2] (setting [8]) came to 63.4%.

`CN1CC2CC2(c2n[nH]c3c(Cl)cccc23)C1` (stereo not drawn) [Example 183, 7-chloro-3-(3-methyl-3-azabicyclo[3.1.0]hexan-1-yl)-1H-indazole] returned a Ki on 5HT2A receptor [1] (setting [6]) of 595 nM. For the same molecule, the EC50 on 5HT2A receptor [2] (setting [7]) was determined as 251 nM. Also, on 5HT2A receptor [2] (setting [9]), the Emax was 69.7%.

In turn, `COc1ccnc2[nH]cc(C3=CCCNC3)c12` [Example 10, 4-methoxy-3-(1,2,5,6-tetrahydropyridin-3-yl)-1H-pyrrolo[2,3-b]pyridine] came in with a Ki at 5HT2A receptor [1] (setting [3]) of 312 nM. This molecule also returned an EC50 at 5HT2A receptor [2] (setting [4]) of 125 nM. For the same molecule, the Emax on 5HT2A receptor [2] (setting [5]) came to 66.5%.

The molecule `Fc1cccc2c(C34CNCCC3C4)n[nH]c12` (stereo not drawn) [Example 194, 3-(3-azabicyclo[4.1.0]heptan-1-yl)-7-fluoro-1H-indazole] gave a Ki on 5HT2A receptor [1] (setting [6]) of 2480 nM. Also, on 5HT2A receptor [2] (setting [7]), the response was half-maximal at 795 nM (EC50). For the same molecule, on 5HT2A receptor [2] (setting [8]), the Emax was 64.4%.

`Clc1cccc2c(C3=CCCCNC3)c[nH]c12` [Example 212, 7-chloro-3-(2,5,6,7-tetrahydro-1H-azepin-3-yl)-1H-indole] came in with a Ki at 5HT2A receptor [1] (setting [6]) of 6240 nM. This molecule also yielded an EC50 at 5HT2A receptor [2] (setting [7]) of 655 nM. Also, the maximal effect (Emax) on 5HT2A receptor [2] (setting [9]) was found to be 72.5%.

`COc1cccc2c(C3=CCCN(C)C3)c[nH]c12` [Example 53, 7-methoxy-3-(1-methyl-1,2,5,6-tetrahydropyridin-3-yl)-1H-indole] displayed a Ki at 5HT2A receptor [1] (setting [3]) of 374 nM. A half-maximal response at 5HT2A receptor [2] (setting [4]) (EC50) required 166 nM. Further, at 5HT2A receptor [2] (setting [5]), the Emax is 77.8%.

Consider `CCCN(CCC)C1CCC=C(c2n[nH]c3c(Cl)cccc23)C1` (stereo not drawn) [Example 172, 3-(7-chloro-1H-indazol-3-yl)-N,N-dipropylcyclohex-3-en-1-amine], for which the inhibition constant Ki on 5HT2A receptor [1] (setting [6]) was above 10000 nM. At 5HT2A receptor [2] (setting [7]), this molecule had an EC50 of 4020 nM. The Emax at 5HT2A receptor [2] (setting [8]) was found to be 66.4%.

Molecule `CN1CC(c2c[nH]c3c(F)cccc23)C1` [Example 260, 7-fluoro-3-(1-methylazetidin-3-yl)-1H-indole] returned a Ki at 5HT2A receptor [1] (setting [6]) of 357 nM. Besides, at 5HT2A receptor [2] (setting [7]), the response was half-maximal at 422 nM (EC50). In addition, the Emax on 5HT2A receptor [2] (setting [8]) is 63.1%.

For `CC(C)c1cccc2c(C3CNC3)c[nH]c12` [Example 262, 3-(azetidin-3-yl)-7-isopropyl-1H-indole], the Ki on 5HT2A receptor [1] (setting [6]) turned out to be 1910 nM. The same molecule returned an EC50 at 5HT2A receptor [2] (setting [7]) of 316 nM. Moreover, on 5HT2A receptor [2] (setting [8]), the Emax is 114%.

With `Fc1cccc2c(C3CNC3)c[nH]c12` [Example 259, 3-(azetidin-3-yl)-7-fluoro-1H-indole], at 5HT2A receptor [1] (setting [6]), the affinity, expressed as Ki, was 168 nM. For the same molecule, a half-maximal effect at 5HT2A receptor [2] (setting [7]) (EC50) was put at 944 nM. For the same molecule, on 5HT2A receptor [2] (setting [9]), the Emax came out at 81.6%.

Turning to `CCCc1cccc2c(C3=CCCN(C)C3)c[nH]c12` [Example 244, 3-(1-methyl-1,2,5,6-tetrahydropyridin-3-yl)-7-propyl-1H-indole], at 5HT2A receptor [1] (setting [6]), the Ki was determined as 1550 nM. At 5HT2A receptor [2] (setting [7]), this molecule displayed an EC50 of 397 nM. For the same molecule, the Emax on 5HT2A receptor [2] (setting [9]) is 77.2%.

`Clc1cccc2c(C34CNCC3C4)c[nH]c12` (single isomer, unassigned) [Example 278, 3-(3-azabicyclo[3.1.0]hexan-1-yl)-7-chloro-1H-indole]: the Ki at 5HT2A receptor [1] (secondary binding assay, Cheng-Prusoff, read-out: 5HT2A Ki) worked out at 33 nM. For the same molecule, the “5HTA Gq Emax (%)” value at 5HT2A receptor [2] (BRET2 Gαq dissociation, HEK293T, normalized to 5-HT) was 58.2%. The EC50 on 5HT2A receptor [2] (setting [10]) was found to be 9.23 nM.

Take `CC(F)(F)CN1CCC=C(c2n[nH]c3c(Cl)cccc23)C1` [Example 163, 7-chloro-3-(1-(2,2-difluoropropyl)-1,2,5,6-tetrahydropyridin-3-yl)-1H-indazole]: the Ki at 5HT2A receptor [1] (setting [6]) is above 10000 nM. For the same molecule, the EC50 at 5HT2A receptor [2] (setting [7]) was 604 nM. Also, the Emax on 5HT2A receptor [2] (setting [8]) came out at 82.4%.

Consider `CN1CCC=C(c2n[nH]c3ccc(C#N)cc23)C1` [Example 103, 3-(1-methyl-1,2,5,6-tetrahydropyridin-3-yl)-1H-indazole-5-carbonitrile], for which the Ki on 5HT2A receptor [1] (setting [3]) came out at 1390 nM. In addition, the EC50 at 5HT2A receptor [2] (setting [4]) is 612 nM. Further, the Emax on 5HT2A receptor [2] (setting [5]) was found to be 64.9%.

As for `Cc1cccc2c(C34CNCCC3C4)c[nH]c12` (stereo not drawn) [Example 271, 3-(3-azabicyclo[4.1.0]heptan-1-yl)-7-methyl-1H-indole], the Ki on 5HT2A receptor [1] (setting [6]) stood at 3150 nM. The midpoint of the response at 5HT2A receptor [2] (setting [7]), the EC50, lay at 327 nM. In addition, on 5HT2A receptor [2] (setting [8]), the Emax is 80.1%.

On 5HT2A receptor [1] (setting [6]), `Clc1cccc2c(C34CCNCC3C4)n[nH]c12` (stereo not drawn) [Example 228, 3-(3-azabicyclo[4.1.0]heptan-6-yl)-7-chloro-1H-indazole] yielded a Ki of 5240 nM. The EC50 on 5HT2A receptor [2] (setting [7]) was 1070 nM. Also, at 5HT2A receptor [2] (setting [8]), the maximal response (Emax) came out at 76.4%.

As usually defined, the Ki is the equilibrium dissociation constant of an inhibitor or competing ligand from its target. By EC50 is commonly meant the midpoint of the concentration-response curve. Usually Emax stands for the size of the effect at its maximum, as opposed to the concentration needed.
